Reference: EP1038880B1, “Androstanes and pregnanes for allosteric modulation of GABA receptor” (priority 1994, dated 1995)

Columns and labels:
[1] = Rotorod test (general CNS depression potential); conditions: mouse, in vivo, ip
Protocol: The anticonvulsant tests are similar to that described above. […] The number of animals with tonic and/or clonic convulsions was recorded. In the maximal electroshock test, 50 mA of current at 60 Hz was delivered through corneal electrodes for 200 msec to induce tonic seizure. The ability of compounds to abolish the tonic component was defined as the endpoint. General CNS depression potential was determined by a rotorod test 10 minutes after the injection of compounds where the number of mice staying on a rotating (6 rpm) rod for 1 minute in one of the three trials was determined. […] Table 7. Anticonvulsant Activity of Exemplified Neuroactive Steroids and those of Selected Clinically Useful Anticonvulsants in Mice

[2] = tested on: Sprague-Dawley rats; test: Geller-Seifter conflict test; type: in vivo; conditions: subcutaneous administration (Figure 10)
Source text: This animal model of human anxiety utilizes a conditioned state of conflict in rats to ascertain the anxiolytic properties of drugs. […] The first includes bar pressing under a variable […] schedule without punishment. The second component is a fixed ratio schedule with each bar press resulting in a positive reinforcement and a punishment. The punished component produces a state of conflict within the animal. […] An anxiolytic response would increase the punished responding without affecting the unpunished responding.
Rats were housed individually under a 12-hour light-dark cycle with lights on from 0700-1900.
Rats were trained in test chambers (Coulbourn instruments) with a lever mounted in one wall, a small dipper that delivered the 0.1-mL milk reward (1 part Eagle condensed : milk 2 parts water), and a metal grid floor through which the foot-shock punishment was administered. A DEC PDP 11/73 minicomputer nmning SKED (State Systems) was used for programming and recording.
Rates initially learned to respond on a continuous reinforcement schedule and progressed rapidly to 30-sec, 1-min, and 2-min variable interval (VI) schedules. On the continuous reinforcement schedule, rats received milk reward following every lever press; on the VI schedules, milk rewards were available at infrequent and variable intervals, eventually at an average of once every 2 min. […] During conflict periods, which were signalled by the presentation of a light and a tone, the continuous reinforcement schedule was again in force and each lever press delivered both a milk reward and a brief ([…]) foot-shock Shock intensity was 0.2 mA initially, and.was increased daily in increments of 0.02 mA in order to gradually suppress lever pressing to 5 responses or less per conflict period. […] Drug-induced increases in the rate of punished responses were taken as an index of antianxiety activity, while decreases in the rate of unpunished responses were taken as an index of response depression or sedation.

SMILES	ED50 at 10 min [1] [mg/kg]	dose of peak effect on rate of punished responses [2] [mg/kg]
C[C@]12CC[C@@H](O)C[C@@H]1CC[C@@H]1[C@@H]2CC[C@]2(C)[C@@H](C(=O)CO)CC[C@@H]12 [3α,21-dihydroxy-5α-pregnan-20-one]	22.9	
CC(=O)[C@H]1CC[C@H]2[C@@H]3CC[C@H]4C[C@H](O)CC[C@]4(C)[C@H]3CC[C@]12C [3α-Hydroxy-5α-pregnan-20-one, 3α-hydroxy-5α-pregnan-20-one]		4.4
